“Also recorded” adds a separate entry of the source. Like-named read-outs stand apart in the source and are kept apart here.
Experiments:
[1] = Clinical observation on washing with ILPS; assay type: in vivo; conditions: general cosmetic use
[2] = Solubility of ILCS preparations; assay type: physicochemical; conditions: pH 7-10.5
[3] = system: Candida albicans ATCC 10231; assay: EPA MLB SOP MB-35-00 stainless steel carrier disinfection with ILPS (Example 5); assay type: cell-based
[4] = system: methacillin resistant Staphylococcus aureus, vancomycin resistant enterococcus, pseudomonas, aspergillus, Candida albicans, Helicobacter pylori; conditions: studies by a third party; cited from earlier work
[5] = system: viral illnesses such as pharyngitis and rhinorrhea; assay: ILCS spray or wash for the nasopharynx cavity; assay type: in vivo; conditions: 2-50 mM ILCS spray or wash
SARS-COV-2 = assay: Virucidal assay, 2 minutes contact, end-point titer (CCID50) on Vero 76 cells
microbial growth = assay: Reduction in microbial growth; assay type: cell-based; conditions: potassium hexadiene at pH 9
COVID-19 = assay: Nebulized LA outpatient treatment of COVID-19 patients and close contacts (case studies); assay type: in vivo, human
Procedure: After informed consent of the risks and potential benefits, we nebulized 0.56 ml 11 mM LA every 4 hours to treat two COVID-19 patients. The initial treatment of the […] began after two days of symptoms and the […] began treatment after their first day symptoms. Treatment observations of these two cohabiting patients occurred in their home to alter the likely course of clinical deterioration given their co-morbidities.
They were treated with 0.56 ml 11 mM nebulized LA every 4 hours, around the clock for 7 days. Oxygen saturation levels were recorded by the patient using a pulse oximeter. The initial and final evaluation was conducted as a home visit. All other evaluations were conducted by telephone. The treatment timeline starts the day after the initial home visit. • Day 1: they reported a total loss of taste and smell and mild chest pain. They also reported absence of dyspnea early that day and improved cough. Their oxygen saturation measured 98% (up from 94%). • Day 2: they reported intermittent taste and smell through day 4. Their chest pain resolved. They also reported infrequent loose bowel movements which improved and resolved over the following 3 days. They described no dyspnea. Their oxygen saturation measured 97%. • Day 3: they reported a return of mild dyspnea. Their oxygen saturation measured 95%. • Day 4: they reported dyspnea improvement. Their oxygen saturation measured between 95-98%. • Day 5: they reported that their sense of taste and smell was close to normal. They also reported that their cough had resolved and they had minimal dyspnea. Their oxygen saturation measured 97%. • Day 6: no reported symptoms. Their oxygen saturation measured 97%. • Day 7: no reported symptoms. Their oxygen saturation measured 98%.
After informed consent of the risks and potential benefits, we nebulized 0.56 ml 11 mM LA every 4 hours around the clock for 7 days. […] […] initial oxygen saturation measured 96%.
Oxygen saturation levels were recorded by the patient using a pulse oximeter. The initial and final evaluation was conducted as a home visit. All other evaluations were conducted by telephone. The treatment timeline starts the day after the initial home visit. • Day 1: they reported loss of taste and smell and fatigue. Their wheezing had improved. They reported no dyspnea. Oxygen saturation measured 95%. • Day 2: they reported mild wheezing and dyspnea. Their oxygen saturation measured 94%. An additional treatment of an Albuterol nebulizer and Methylprednisolone Dosepak was started for their asthma exacerbation. When starting nebulized Albuterol, this patient inadvertently discontinued the nebulized LA because they misunderstood instructions. This cessation of nebulized LA was not reported to the treating physician until Day 4. • Day 3: they reported improved loss of taste and smell and cough. Dyspnea worsened. Oxygen saturation measured 98% • Day 4: they reported that the loss of taste and smell improved. They also reported mild wheezing and cough. Oxygen saturation measured 95%. The patient reported the Albuterol nebulizer aggravated dyspnea symptoms. Because of their complaint, the Albuterol nebulizer was discontinued. Nebulized LA treatment was started again. • Day 5: they reported no loss of taste and smell. Minimal cough, wheeze, and dyspnea. Oxygen saturation measured 96% • Day 6: no reported symptoms. Oxygen saturation measured 98%. • Day 7: no reported symptoms. Oxygen saturation measured 98%.
Four lab confirmed COVID-19 cases, 2 probable cases, and 2 close contacts of confirmed COVID-19 cases were nebulized 0.56 ml 11 mM LA (Table 2). Treatment with LA was started after patients were assessed by their primary physician. Patients presented at different points in their COVID-19 infection. Onset of treatment ranged from asymptomatic to 9 days into the symptom course. Two close contacts with cases were treated. They were asymptomatic. Two close contacts with COVID-19 cases were also nebulized using 0.56 ml 11 mM LA every 4 hours. […]

[6] = Concentration 11.3% of 12% ICLS, 2 minutes, 22±2° C., Table 4
[7] = Concentration 22.5% of 12% ICLS, 2 minutes, 22±2° C., Table 4
[8] = Concentration 45% of 12% ICLS, 2 minutes, 22±2° C., Table 4
[9] = Concentration 90% of 12% ICLS, 2 minutes, 22±2° C., Table 4
[10] = second experiment, Concentration 0.25% of 12% ICLS, 2 minutes, Table 5
[11] = second experiment, Concentration 0.5% of 12% ICLS, 2 minutes, Table 5
[12] = second experiment, Concentration 1% of 12% ICLS, 2 minutes, Table 5
[13] = second experiment, Concentration 11.3% of 12% ICLS, 2 minutes, 22±2° C., Table 5
[14] = second experiment, LA 1% (4.4 mM), 2 minutes, Tables 8 and 9

Procedure for Candida auris (AR-0381): We used EPA protocol MB-35-00 for testing disinfectants against C. auris (US Environmental Protection Agency. 2017, 2020) and C. albicans ATCC 10231, a yeast common in package spoilage of food and cosmetics.
We tested 5 batches produced with difference sources of isomerized linoleic acid (Test Substances 1-5).
The EPA test protocol for testing hard surface disinfection of C. auris (AR0381) with antifungal resistance includes an overnight culture of C. auris (AR.0381) shaken at 200 rpm at 30° C. From this culture, 8 mL was harvested by centrifugation, re-suspended in 2-3 mL phosphate-buffered saline (PBS), and mixed with a 3-part soil load including bovine serum albumin (BSA), yeast extract, and mucin. Metal carriers (10 mm) were inoculated (10 μL culture+soil load) and dried in a desiccator under vacuum (˜70 min). The disk surface was coated with the test substance at 0.42 M (50 μL) for up to 10 min. Following incubation, the carriers were transferred to 10 mL neutralization solution (Sabouraud Dextrose Broth [SDB], a common yeast-mold growth media) for subsequent harvesting on membrane filters. The filtered membranes were transferred to Sabouraud Dextrose Emmons Agar (SDEA) plates to culture for 120 hours at 31° C. Controls consisted of PBS (50 μL) applied to inoculated metal disk carriers, subsequently transferred to 10 mL neutralization solution (SDB), diluted serially in PBS, and plated directly to SDEA plates, See FIG. 2.
We prepared and qualified these per EPA protocol (US Environmental Protection Agency, 2017). • Soil Stocks: We prepared soil stocks with yeast extract powder (Ref RM027) purchased from Himedia, BSA (A2153) purchased from Sigma Life Science, and gastric mucin (cat #HY-B2196/CS-7626) purchased from Mod Chem Express per SOP MB-35-00 (US Environmental Protection Agency, 2017). • Cell Harvesting: We removed cells from the growth culture media using a Micro-Centrifuge obtained from Changzhou Jintan Sanhe Instrument Co., LTD. (Model TGI6-W) at 10,000×g for 10 min in screw-top-cap vials purchased from Heathrow Scientific (Item HS 100600). The optical density of the inoculate was defined at 15-19 OD600 in PBS with the Ultrospec 10 Cell Density Meter from BioChrom (Holliston, MA, USA) prior to dilution in the soil load. Samples were diluted 1:10 in PBS to obtain absorbance readings between 1.5 and 1.9. • Membrane Filtration: Treated yeasts were collected using a combination of the Rocker (Cat #200300-01) and 47 mm PES membranes with a 0.45 micron pore size obtained from Sterlitech (Catalog #PE54547100).

potassium salt of isomerized linoleic acid [ILCS]
acne [1]: clinical remission of acne
toxicity to cells in titer plates (Vero 76 cells; 11.3% sample, 1/10 dilution): Full toxicity
toxicity to cells in titer plates (Vero 76 cells; 22.5%-90% samples, 1/10 and 1/100 dilutions): Full toxicity
solubility [2]: remain soluble
growth on exposed carrier ([3]; 1 minute exposure to ILPS, only exposure time of 8 to 1 minutes with growth): 158 CFU
kill ([3]; 2 minutes exposure/immersion, carriers with 6-8 log yeast): 100%
colonies recovered from treated surfaces ([3]; undiluted ILPS, 10 minutes contact time, PBS controls 5.9 to 7.2 log10 CFU): no Candida albicans colonies
log kill rate (Candida auris (AR-0381); 0.42 M, 1 min): greater than 5 log
log kill rates (Candida auris (AR-0381); 10-min test, the longest time allowed per the SOP): greater than 5 log
growth of pathogens [4]: suppresses the growth
symptoms associated with viral illnesses [5]: reduced symptoms
reduction of virus vs virus controls (SARS-COV-2): > 99%
reduction of virus vs virus controls (SARS-COV-2; 1% (4.4 mM), 2 minutes, second experiment, titer reduced to 1.7 log CCID50 per 0.1 mL): 99%
reduction of virus vs virus controls (SARS-COV-2; 22.5%-90%, 2 minutes, first experiment, below limit of detection 2.7 log CCID50 per 0.1 mL): > 80%
LRV (log reduction value) (SARS-COV-2; [6]): >1.8
Virus Titer (SARS-COV-2; [6]): <1.7 Log10 CCID50 of virus per 0.1 mL
LRV (log reduction value) (SARS-COV-2; [7]): >0.8
Virus Titer (SARS-COV-2; [7]): <2.7 Log10 CCID50 of virus per 0.1 mL
LRV (log reduction value) (SARS-COV-2; [8]): >0.8
Virus Titer (SARS-COV-2; [8]): <2.7 Log10 CCID50 of virus per 0.1 mL
LRV (log reduction value) (SARS-COV-2; [9]): >0.8
Virus Titer (SARS-COV-2; [9]): <2.7 Log10 CCID50 of virus per 0.1 mL
kill-rate of COVID-19 (SARS-Cov-2) in vitro (SARS-COV-2; LA 4.4-50.2 mM, 2 minutes): 99%
LRV (log reduction value) (SARS-COV-2; [10]): 0.4
Virus Titer (SARS-COV-2; [10]): 3.3 Log10 CCID50 of virus per 0.1 mL
LRV (log reduction value) (SARS-COV-2; [11]): 0.2
Virus Titer (SARS-COV-2; [11]): 3.5 Log10 CCID50 of virus per 0.1 mL
LRV (log reduction value) (SARS-COV-2; [12]): 2.0
Virus Titer (SARS-COV-2; [12]): 1.7 Log10 CCID50 of virus per 0.1 mL
LRV (log reduction value) (SARS-COV-2; [13]): >2.0
Virus Titer (SARS-COV-2; [13]): <1.7 Log10 CCID50 of virus per 0.1 mL
LRV (log reduction value) (SARS-COV-2; [14]): >2.0
Virus Titer (SARS-COV-2; [14]): <1.7 Log10 CCID50of virus per 0.1 mL
reduction in microbial growth (microbial growth): 8-10 log reduction
COVID-19 Complications (COVID-19; Cases 1): none
Total Duration of Symptoms (COVID-19; Cases 1, 0 days of symptoms before treatment): 0 days
COVID-19 Complications (COVID-19; Cases 2): none
Total Duration of Symptoms (COVID-19; Cases 2, 2 days of symptoms before treatment): 7 days
Total Duration of Symptoms (COVID-19; Cases 3, 4 days of symptoms before treatment): 16 days
Total Duration of Symptoms (COVID-19; Cases 4, 9 days of symptoms before treatment): 23 days
COVID-19 Complications (COVID-19; Close Contacts 1): none
Total Duration of Symptoms (COVID-19; Close Contacts 1, asymptomatic at treatment): 0 days
COVID-19 Complications (COVID-19; Close Contacts 2): none
Total Duration of Symptoms (COVID-19; Close Contacts 2, asymptomatic at treatment): 0 days
COVID-19 Complications (COVID-19; Probable Cases 1): Steroid for asthma
Total Duration of Symptoms (COVID-19; Probable Cases 1, 1 day of symptoms before treatment): 6 days
COVID-19 Complications (COVID-19; Probable Cases 2): none
Total Duration of Symptoms (COVID-19; Probable Cases 2, 3 days of symptoms before treatment): 10 days
side effects to nebulized LA (COVID-19; eight patients of Example 7, nebulized 0.56 ml 11 mM LA, listed as LA): no side effects; also recorded: None of the eight patients reported any side effects
oxygen saturation (COVID-19; husband, treatment Day 1 (94% before treatment)): 98%
oxygen saturation (COVID-19; husband, treatment Day 2): 97%
oxygen saturation (COVID-19; husband, treatment Day 3): 95%
oxygen saturation (COVID-19; husband, treatment Day 4): 95-98%
oxygen saturation (COVID-19; husband, treatment Day 5): 97%
oxygen saturation (COVID-19; husband, treatment Day 6): 97%
oxygen saturation (COVID-19; husband, treatment Day 7): 98%
prevention of symptoms in close contacts (COVID-19; two asymptomatic close contacts of COVID-19 cases): completely effective
side effects to nebulized LA (COVID-19; two patients of Example 6, 0.56 ml 11 mM every 4 hours for 7 days): no side effects
oxygen saturation (COVID-19; wife, Day 2, Albuterol and Methylprednisolone started, LA inadvertently discontinued): 94%
oxygen saturation (COVID-19; wife, Day 3, nebulized LA discontinued, on Albuterol): 98%
oxygen saturation (COVID-19; wife, Day 4, nebulized LA started again): 95%
oxygen saturation (COVID-19; wife, treatment Day 1 (96% before treatment)): 95%
oxygen saturation (COVID-19; wife, treatment Day 5): 96%
oxygen saturation (COVID-19; wife, treatment Day 6): 98%
oxygen saturation (COVID-19; wife, treatment Day 7): 98%
